The target in assay [1] is T1, Hepatocyte growth factor receptor (Homo sapiens, UniProt P08581). In words: Inhibition of c-MET (unknown origin) at 1 uM after 60 mins by ELISA. On the technique in general: In an ELISA, binding on a coated surface is turned into a signal by an enzyme label.
A short description of assay [2]: Antiproliferative activity in human EBC1 cells overexpressing c-MET after 72 hrs by sulforhodamine B assay. The assay is classed as functional, cell-based. To be noted: EBC-1, 72 h. In general terms: Sulforhodamine B stains cellular protein and so reports cell mass.
Assay [3] deals with T1, Hepatocyte growth factor receptor. In words: Inhibition of c-MET (unknown origin).
Assay [4] has the same target. In words: Inhibition of c-MET (unknown origin) at 10 uM after 60 mins by ELISA relative to control.
Assay [5] addresses Receptor tyrosine-protein kinase erbB-4 (Homo sapiens, UniProt Q15303). In words: Inhibition of ERBB4 (unknown origin).
Assay [6] concerns the target Vascular endothelial growth factor receptor 2 (Homo sapiens, UniProt P35968). The assay is described as follows: Inhibition of KDR (unknown origin).
In assay [7] the target is Epidermal growth factor receptor (Homo sapiens, UniProt P00533, L858R/T790M). In words: Inhibition of EGFR T790M/L858R double mutant (unknown origin). The class given is protein assay.
For assay [8], the target named is Receptor tyrosine-protein kinase erbB-2 (Homo sapiens, UniProt P04626). In words: Inhibition of ERBB2 (unknown origin).
Assay [9] has as its target Vascular endothelial growth factor receptor 1 (Homo sapiens, UniProt P17948). In words: Inhibition of FLT1 (unknown origin).
Assay [10] concerns the target Macrophage-stimulating protein receptor (Homo sapiens, UniProt Q04912). The assay is described as follows: Inhibition of RON (unknown origin).
The target of assay [11] is Tyrosine-protein kinase ABL1 (Homo sapiens, UniProt P00519). The assay is described as follows: Inhibition of ABL (unknown origin).
Assay [12] concerns the target Epidermal growth factor receptor (Homo sapiens, UniProt P00533). In words: Inhibition of EGFR (unknown origin).
Assay [13] has as its target Proto-oncogene tyrosine-protein kinase receptor Ret (Homo sapiens, UniProt P07949). The assay is described as follows: Inhibition of RET (unknown origin).
Assay [14] has as its target Fibroblast growth factor receptor 1 (Homo sapiens, UniProt P11362). In words: Inhibition of FGFR1 (unknown origin).
The target of assay [15] is T1, Hepatocyte growth factor receptor. The assay is described as follows: Inhibition of c-MET (unknown origin) after 60 mins by ELISA.
Assay [16] addresses Platelet-derived growth factor receptor alpha (Homo sapiens, UniProt P16234). In words: Inhibition of PDGFRalpha (unknown origin).
Assay [17] concerns the target T2, Tyrosine-protein kinase receptor TYRO3 (Homo sapiens, UniProt Q06418).
T2 sequence (Q06418 whole entry): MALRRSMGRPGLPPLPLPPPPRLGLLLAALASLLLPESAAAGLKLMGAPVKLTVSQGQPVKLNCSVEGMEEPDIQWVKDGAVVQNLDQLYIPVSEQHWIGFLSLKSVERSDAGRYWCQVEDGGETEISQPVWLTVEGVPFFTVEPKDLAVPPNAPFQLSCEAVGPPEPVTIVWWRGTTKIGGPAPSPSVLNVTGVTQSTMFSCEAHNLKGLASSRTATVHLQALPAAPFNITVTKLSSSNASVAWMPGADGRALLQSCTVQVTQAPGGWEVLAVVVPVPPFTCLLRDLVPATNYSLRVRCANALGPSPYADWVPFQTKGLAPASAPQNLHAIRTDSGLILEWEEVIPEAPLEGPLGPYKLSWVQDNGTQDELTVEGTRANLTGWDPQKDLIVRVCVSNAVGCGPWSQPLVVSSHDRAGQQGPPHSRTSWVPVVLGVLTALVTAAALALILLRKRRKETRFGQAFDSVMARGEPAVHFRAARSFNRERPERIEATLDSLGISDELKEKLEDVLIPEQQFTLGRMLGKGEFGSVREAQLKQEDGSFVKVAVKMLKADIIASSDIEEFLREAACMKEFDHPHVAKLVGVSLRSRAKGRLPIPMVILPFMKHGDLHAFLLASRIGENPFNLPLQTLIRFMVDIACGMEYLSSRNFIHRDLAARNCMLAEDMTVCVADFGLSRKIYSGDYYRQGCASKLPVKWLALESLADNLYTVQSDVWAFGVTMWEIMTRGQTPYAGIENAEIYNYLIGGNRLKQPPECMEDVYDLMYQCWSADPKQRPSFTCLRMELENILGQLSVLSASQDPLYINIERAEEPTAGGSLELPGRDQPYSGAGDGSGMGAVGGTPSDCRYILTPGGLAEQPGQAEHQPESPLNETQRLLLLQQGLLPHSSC
The assay is described as follows: Inhibition of TYRO3 (unknown origin).

Calls of active or inactive are those of the source. The rule behind the calls is not given here.

As usually defined, the inhibition is the percentage by which the read-out fell short of the control. One may read the IC50 as the concentration at which inhibition is half-maximal. Read a low IC50 as greater potency.

T1 sequence (P08581 whole entry): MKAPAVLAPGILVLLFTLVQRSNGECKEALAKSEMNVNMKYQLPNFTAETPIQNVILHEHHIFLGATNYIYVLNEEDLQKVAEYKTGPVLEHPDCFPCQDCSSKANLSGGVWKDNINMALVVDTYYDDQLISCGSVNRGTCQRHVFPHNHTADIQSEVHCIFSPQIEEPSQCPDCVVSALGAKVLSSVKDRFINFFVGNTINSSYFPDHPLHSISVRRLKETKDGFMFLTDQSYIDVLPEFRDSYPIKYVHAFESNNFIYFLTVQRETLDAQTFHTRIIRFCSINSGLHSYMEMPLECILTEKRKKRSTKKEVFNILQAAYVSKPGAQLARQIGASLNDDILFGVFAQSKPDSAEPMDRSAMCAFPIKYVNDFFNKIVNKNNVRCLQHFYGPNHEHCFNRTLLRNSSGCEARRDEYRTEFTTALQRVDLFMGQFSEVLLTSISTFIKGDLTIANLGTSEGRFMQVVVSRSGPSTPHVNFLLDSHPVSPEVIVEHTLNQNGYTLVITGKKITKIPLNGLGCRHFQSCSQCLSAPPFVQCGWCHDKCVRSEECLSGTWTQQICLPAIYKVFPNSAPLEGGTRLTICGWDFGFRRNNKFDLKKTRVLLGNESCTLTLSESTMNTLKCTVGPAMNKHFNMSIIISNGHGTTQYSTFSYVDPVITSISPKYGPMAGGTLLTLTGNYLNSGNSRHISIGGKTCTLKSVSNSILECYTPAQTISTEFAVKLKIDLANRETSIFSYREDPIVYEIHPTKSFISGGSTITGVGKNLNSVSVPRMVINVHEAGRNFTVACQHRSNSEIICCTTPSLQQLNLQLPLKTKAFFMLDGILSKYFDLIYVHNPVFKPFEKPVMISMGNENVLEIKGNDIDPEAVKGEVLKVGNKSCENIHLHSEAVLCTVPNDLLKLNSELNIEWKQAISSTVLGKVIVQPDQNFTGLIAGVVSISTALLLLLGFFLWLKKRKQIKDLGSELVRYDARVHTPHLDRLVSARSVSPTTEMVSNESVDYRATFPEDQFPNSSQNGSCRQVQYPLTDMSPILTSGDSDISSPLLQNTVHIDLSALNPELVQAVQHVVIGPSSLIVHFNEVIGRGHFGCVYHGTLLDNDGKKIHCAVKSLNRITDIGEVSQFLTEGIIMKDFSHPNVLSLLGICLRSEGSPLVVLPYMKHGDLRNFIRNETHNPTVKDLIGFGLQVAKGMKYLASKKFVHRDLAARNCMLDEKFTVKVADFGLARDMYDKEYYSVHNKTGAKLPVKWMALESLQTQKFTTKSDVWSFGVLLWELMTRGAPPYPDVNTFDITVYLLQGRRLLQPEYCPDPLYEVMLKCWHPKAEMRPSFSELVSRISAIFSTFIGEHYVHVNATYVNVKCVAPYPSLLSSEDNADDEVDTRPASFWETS
Sequence of Tyrosine-protein kinase ABL1 (P00519 whole entry): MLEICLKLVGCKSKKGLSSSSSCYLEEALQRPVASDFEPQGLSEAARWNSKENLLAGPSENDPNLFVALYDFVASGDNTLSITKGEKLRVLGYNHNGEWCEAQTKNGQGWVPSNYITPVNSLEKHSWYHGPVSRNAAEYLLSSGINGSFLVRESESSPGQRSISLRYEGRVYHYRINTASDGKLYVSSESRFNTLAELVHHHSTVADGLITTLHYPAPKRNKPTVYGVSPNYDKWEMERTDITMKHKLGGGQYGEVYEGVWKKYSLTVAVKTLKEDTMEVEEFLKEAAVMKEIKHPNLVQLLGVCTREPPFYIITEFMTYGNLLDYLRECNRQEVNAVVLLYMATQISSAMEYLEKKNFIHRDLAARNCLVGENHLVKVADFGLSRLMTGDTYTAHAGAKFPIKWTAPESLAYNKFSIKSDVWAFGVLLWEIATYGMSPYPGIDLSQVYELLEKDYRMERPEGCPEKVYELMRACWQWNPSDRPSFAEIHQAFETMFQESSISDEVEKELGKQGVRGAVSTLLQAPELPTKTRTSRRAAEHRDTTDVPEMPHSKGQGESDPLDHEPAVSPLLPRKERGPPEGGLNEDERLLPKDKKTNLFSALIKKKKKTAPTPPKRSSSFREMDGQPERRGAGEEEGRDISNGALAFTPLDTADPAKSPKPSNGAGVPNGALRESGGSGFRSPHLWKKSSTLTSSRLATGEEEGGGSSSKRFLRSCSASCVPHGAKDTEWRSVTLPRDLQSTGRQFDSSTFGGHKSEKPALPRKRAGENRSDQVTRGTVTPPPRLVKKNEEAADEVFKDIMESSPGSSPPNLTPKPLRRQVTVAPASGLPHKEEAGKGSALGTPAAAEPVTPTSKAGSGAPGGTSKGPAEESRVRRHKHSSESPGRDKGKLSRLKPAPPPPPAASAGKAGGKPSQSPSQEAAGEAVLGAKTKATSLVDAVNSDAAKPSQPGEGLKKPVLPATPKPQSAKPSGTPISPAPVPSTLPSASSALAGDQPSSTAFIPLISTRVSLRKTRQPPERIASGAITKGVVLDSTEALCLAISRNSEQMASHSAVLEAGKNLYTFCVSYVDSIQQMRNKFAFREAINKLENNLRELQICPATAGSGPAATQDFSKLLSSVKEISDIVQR
Sequence of Platelet-derived growth factor receptor alpha (P16234 whole entry): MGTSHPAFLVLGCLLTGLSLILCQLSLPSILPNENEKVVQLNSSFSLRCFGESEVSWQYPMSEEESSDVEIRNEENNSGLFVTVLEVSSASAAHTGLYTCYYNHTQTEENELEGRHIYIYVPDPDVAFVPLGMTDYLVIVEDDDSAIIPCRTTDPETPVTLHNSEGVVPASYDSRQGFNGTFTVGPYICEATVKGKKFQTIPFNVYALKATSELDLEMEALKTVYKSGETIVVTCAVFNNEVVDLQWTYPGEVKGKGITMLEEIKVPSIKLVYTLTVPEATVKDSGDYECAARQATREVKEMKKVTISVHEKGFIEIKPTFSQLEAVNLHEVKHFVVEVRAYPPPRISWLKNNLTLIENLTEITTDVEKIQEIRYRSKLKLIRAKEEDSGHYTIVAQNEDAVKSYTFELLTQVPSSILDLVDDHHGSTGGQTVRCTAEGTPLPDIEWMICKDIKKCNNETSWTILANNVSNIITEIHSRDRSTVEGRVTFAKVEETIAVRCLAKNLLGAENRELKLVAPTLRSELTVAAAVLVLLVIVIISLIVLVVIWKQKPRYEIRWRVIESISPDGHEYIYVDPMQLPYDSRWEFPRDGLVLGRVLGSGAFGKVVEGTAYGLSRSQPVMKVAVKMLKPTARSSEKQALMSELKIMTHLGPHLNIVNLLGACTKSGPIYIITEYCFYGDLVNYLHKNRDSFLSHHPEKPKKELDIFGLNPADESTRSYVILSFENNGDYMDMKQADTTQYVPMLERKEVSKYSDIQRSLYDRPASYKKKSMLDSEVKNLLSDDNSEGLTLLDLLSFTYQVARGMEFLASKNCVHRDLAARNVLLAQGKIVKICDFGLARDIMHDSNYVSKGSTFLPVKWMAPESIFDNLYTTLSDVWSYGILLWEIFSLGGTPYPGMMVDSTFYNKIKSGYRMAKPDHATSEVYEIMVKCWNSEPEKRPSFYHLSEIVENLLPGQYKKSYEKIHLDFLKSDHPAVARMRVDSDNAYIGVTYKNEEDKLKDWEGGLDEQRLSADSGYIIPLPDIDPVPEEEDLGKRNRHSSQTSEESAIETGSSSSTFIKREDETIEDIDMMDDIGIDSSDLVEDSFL
Sequence of Receptor tyrosine-protein kinase erbB-4 (Q15303 whole entry): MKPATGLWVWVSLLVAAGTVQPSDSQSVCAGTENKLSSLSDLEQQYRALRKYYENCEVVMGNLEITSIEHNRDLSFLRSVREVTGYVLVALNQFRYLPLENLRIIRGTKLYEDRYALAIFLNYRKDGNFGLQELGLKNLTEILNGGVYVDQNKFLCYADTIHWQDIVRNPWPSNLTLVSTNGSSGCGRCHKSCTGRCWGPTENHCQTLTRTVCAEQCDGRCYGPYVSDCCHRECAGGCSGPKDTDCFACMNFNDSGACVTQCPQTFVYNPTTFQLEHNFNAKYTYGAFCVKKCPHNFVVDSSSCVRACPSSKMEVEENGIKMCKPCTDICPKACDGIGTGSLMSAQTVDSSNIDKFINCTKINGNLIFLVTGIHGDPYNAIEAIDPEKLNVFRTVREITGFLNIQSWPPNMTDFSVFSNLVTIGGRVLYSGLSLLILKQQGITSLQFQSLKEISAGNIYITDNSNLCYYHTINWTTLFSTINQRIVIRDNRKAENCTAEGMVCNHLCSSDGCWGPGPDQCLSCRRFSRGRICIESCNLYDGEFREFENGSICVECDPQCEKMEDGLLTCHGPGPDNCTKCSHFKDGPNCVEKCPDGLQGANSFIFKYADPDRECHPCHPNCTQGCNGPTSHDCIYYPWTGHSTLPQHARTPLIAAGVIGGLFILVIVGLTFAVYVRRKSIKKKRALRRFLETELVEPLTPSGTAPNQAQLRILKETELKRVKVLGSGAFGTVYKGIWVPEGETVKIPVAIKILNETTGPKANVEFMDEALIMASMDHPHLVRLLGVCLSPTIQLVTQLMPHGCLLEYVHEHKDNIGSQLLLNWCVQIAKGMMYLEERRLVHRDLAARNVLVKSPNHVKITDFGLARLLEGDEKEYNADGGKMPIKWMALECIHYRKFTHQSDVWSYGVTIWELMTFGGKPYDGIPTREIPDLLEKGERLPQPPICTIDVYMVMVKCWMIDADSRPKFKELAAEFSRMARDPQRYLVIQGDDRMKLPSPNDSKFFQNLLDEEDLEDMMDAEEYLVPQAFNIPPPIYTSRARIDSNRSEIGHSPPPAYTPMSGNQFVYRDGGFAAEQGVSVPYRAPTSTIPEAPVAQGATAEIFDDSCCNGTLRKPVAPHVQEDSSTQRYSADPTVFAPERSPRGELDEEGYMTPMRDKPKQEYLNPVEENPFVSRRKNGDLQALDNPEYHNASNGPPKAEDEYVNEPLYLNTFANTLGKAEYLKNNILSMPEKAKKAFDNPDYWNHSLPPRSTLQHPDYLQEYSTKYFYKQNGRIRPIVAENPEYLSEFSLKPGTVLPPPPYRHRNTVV

On to `CCN1CCN(c2ccc(NC(=O)c3cc(O[C@H](C)c4c(Cl)ccc(F)c4Cl)c[nH]c3=O)c(OC)c2)CC1`, for which the inhibition entry in assay [1] was “inactive”.
As for `C[C@@H](Oc1c[nH]c(=O)c(C(=O)Nc2ccc(N3CCN(C)CC3)nc2)c1)c1c(Cl)ccc(F)c1Cl`, 3900 nM corresponded to half-maximal inhibition in assay [2] (IC50).
For the compound `C[C@@H](Oc1cc(C(=O)Nc2ccc(C(=O)N3CCN(C)CC3)cc2)nnc1N)c1c(Cl)ccc(F)c1Cl`, the IC50 in assay [3] was 0.69 nM.
The compound `C[C@@H](Oc1c[nH]c(=O)c(C(=O)Nc2cnn(CCO)c2)c1)c1c(Cl)ccc(F)c1Cl` yielded an IC50 in assay [2] of 1100 nM.
`C[C@@H](Oc1c[nH]c(=O)c(C(=O)Nc2ccc3c(c2)CN(CCN(C)C)C3=O)c1)c1c(Cl)ccc(F)c1Cl` returned a half-maximal inhibitory concentration (IC50) in assay [2] of 2600 nM.
In assay [4], `C[C@@H](Oc1c[nH]c(=O)c(C(=O)NC2CCN(C)CC2)c1)c1c(Cl)ccc(F)c1Cl` returned an inhibition of less than 50%.
The compound `C[C@@H](Oc1c[nH]c(=O)c(C(=O)Nc2ccc(OCCN3CCOCC3)cc2)c1)c1c(Cl)ccc(F)c1Cl` displayed a concentration for half-maximal inhibition (IC50) in [2] of 5900 nM.
In the case of `COc1ncc(O[C@H](C)c2c(Cl)ccc(F)c2Cl)cc1C(=O)Nc1ccc(N2CCN(C)CC2)cc1`, in [1], the inhibition result is “inactive”.
`C[C@@H](Oc1c[nH]c(=O)c(C(=O)NCc2ccc(NS(C)(=O)=O)cc2)c1)c1c(Cl)ccc(F)c1Cl` gave an inhibition in assay [4] of less than 50%.
Compound `C[C@@H](Oc1c[nH]c(=O)c(C(=O)Nc2ccc(CN3CCN(C)CC3)cc2)c1)c1c(Cl)ccc(F)c1Cl` displayed a concentration for half-maximal inhibition (IC50) in [2] of 1100 nM.
`C[C@@H](Oc1c[nH]c(=O)c(C(=O)NCc2ccc(N3CCOCC3)cc2)c1)c1c(Cl)ccc(F)c1Cl`: the inhibition in assay [4] is less than 50%.
Consider `C[C@@H](Oc1c[nH]c(=O)c(C(=O)Nc2ccc(N3CCN(C)CC3)cc2)c1)c1c(Cl)ccc(F)c1Cl`, for which the IC50 was 2200 nM in assay [2]; greater than 1000 nM in assay [5]; greater than 1000 nM in assay [6]; greater than 1000 nM in assay [7]; greater than 1000 nM in [8]; greater than 1000 nM in assay [9]. Further, the 50% inhibitory concentration (IC50) in [10] was 446 nM; in [11], 281 nM; in assay [12], greater than 1000 nM; in [13], greater than 1000 nM; in assay [14] it was greater than 1000 nM; in [15], 12 nM. Moreover, the IC50 in assay [16] and in [17] was greater than 1000 nM in each case.
Regarding `C[C@@H](Oc1c[nH]c(=O)c(C(=O)Nc2cnn(C3CCNCC3)c2)c1)c1c(Cl)ccc(F)c1Cl`, in assay [2], the midpoint of inhibition, the IC50, lay at 1000 nM.
On to `C[C@@H](Oc1c[nH]c(=O)c(C(=O)Nc2cnn(C)c2)c1)c1c(Cl)ccc(F)c1Cl`, for which, in [2], inhibition was half-maximal at 9800 nM (IC50).
